By IC50 is commonly meant the concentration needed to halve the response being measured. A high value points to lower potency. What is called Kd is the constant that tells how readily two partners part at equilibrium. Low readings indicate a tighter complex, high ones a looser complex. By inhibition in vivo is commonly meant the share of the control response that was lost under treatment.

A value given as a limit tells only on which side of the number the result lay.

For test [1], the species on record is Homo sapiens. Kind of test: The compound was tested for the inhibition of platelet aggregation. In kind it is functional.
Test [2] is filed under the species Homo sapiens. Kind of test: Measured by competition with fluorescent ligand L-762,745 for binding to resting human gel filtered platelets using flow cytometry. In kind it is functional.
For test [3], the species on record is Homo sapiens. Put plainly: Tested for the inhibition of [125 I] -L 692,884 binding to purified GPIIb/IIIa coated onto yttrium silicate Scintillation proximity assay fluomicrospheres. On the technique in general: In a scintillation proximity assay essentially only radioactivity close to the scintillant gives light.
Test [4] deals with Canis familiaris. Kind of test: Tested ex vivo inhibition of platelet aggregation after oral dose of 200 ug/kg through out 24 hr in dog. In kind it is functional. Particulars: Canis lupus familiaris.
Test [5] relates to Canis familiaris. Put plainly: Tested ex vivo inhibition of platelet aggregation after oral dose of 200 ug/kg through out 8 hr in dog. Particulars: Canis lupus familiaris. In kind it is functional.

`O=C(NC[C@H](NS(=O)(=O)c1cccnc1)C(=O)O)c1cc2cc(CCC3CCNCC3)sc2s1` gave an IC50 in test [1] of 8 nM.

In test [1], `O=C(NC[C@H](NS(=O)(=O)c1cccs1)C(=O)O)c1cc2sc(CCC3CCNCC3)cc2s1` returned an IC50 of 13 nM. The molecule also yielded a Kd in test [2] of 0.092 nM. In test [3], this molecule came in with an ED50 of 0.04 nM.

The molecule `O=C(NC[C@H](NS(=O)(=O)c1cccs1)C(=O)O)c1cc2cc(CCC3CCNCC3)sc2s1` registered an IC50 in test [1] of 9 nM. Moreover, in test [2], the Kd was 0.15 nM. Besides, the ED50 in test [3] amounted to 0.04 nM.

In the case of `O=C(NC[C@H](NS(=O)(=O)c1ccccc1)C(=O)O)c1cc2cc(CCC3CCNCC3)sc2s1`, the inhibition in vivo at 0.2 mg/kg in test [4] was 50%; in test [5], above 80%. Also, the half-inhibitory concentration (IC50) in test [1] came to 8 nM. The Kd in test [2] was 0.023 nM. In test [3], the ED50 turned out to be 0.03 nM.

Regarding `CCCCS(=O)(=O)N[C@@H](CNC(=O)c1cc2sc(CCC3CCNCC3)cc2s1)C(=O)O`, the IC50 in test [1] was found to be 10 nM. The Kd in test [2] came to 3 nM. The molecule further displayed an ED50 in test [3] of 0.21 nM.

In turn, `O=C(O)CCNC(=O)c1cc2sc(CCC3CCNCC3)cc2s1` yielded an IC50 in test [1] of 500 nM. This molecule also yielded a Kd in test [2] of around 600 nM.

`O=C(NCc1ccccc1)N[C@@H](CNC(=O)c1cc2sc(CCC3CCNCC3)cc2s1)C(=O)O`: the IC50 in test [1] stood at 36 nM. The molecule also returned a dissociation constant Kd in test [2] of 33 nM. In test [3], this molecule showed an ED50 of 2.6 nM.

In turn, `O=C(NC[C@H](NS(=O)(=O)c1cccnc1)C(=O)O)c1cc2cc(CCCC3CCNCC3)sc2s1` registered an IC50 in test [1] of 21 nM.

Molecule `CCCCS(=O)(=O)N[C@@H](CNC(=O)c1cc2cc(CCC3CCNCC3)sc2s1)C(=O)O` showed a concentration for half-maximal inhibition (IC50) in test [1] of 32 nM. The molecule also yielded a Kd in test [2] of 5.6 nM. Moreover, the ED50 in test [3] was 0.12 nM.

In test [1], `O=C(NCc1ccccc1)N[C@@H](CNC(=O)c1cc2cc(CCC3CCNCC3)sc2s1)C(=O)O` registered an IC50 of 76 nM. For the same molecule, the Kd in test [2] was found to be 94 nM. For the same molecule, the ED50 in test [3] is 1.9 nM.

`O=C(NC[C@H](NS(=O)(=O)c1ccc(Cl)cc1)C(=O)O)c1cc2cc(CCC3CCNCC3)sc2s1`: half-maximal inhibition in test [1] (IC50) was put at 11 nM. The molecule also came in with a Kd in test [2] of 0.026 nM. Further, the ED50 in test [3] turned out to be 0.09 nM.

Take `O=C(NC[C@H](NS(=O)(=O)c1cccnc1)C(=O)O)c1cc2cc(CC3CCNCC3)sc2s1`: 23 nM corresponded to half-maximal inhibition in test [1] (IC50).

Take `O=C(NC[C@H](NS(=O)(=O)c1ccccc1)C(=O)O)c1cc2sc(CCC3CCNCC3)cc2s1`: in test [1], the concentration for half-maximal inhibition (IC50) stood at 8 nM. Binding in test [2] was put at a Kd of 0.15 nM. The ED50 in test [3] turned out to be 0.08 nM.

In test [1], `O=C(O)CCNC(=O)c1cc2cc(CCC3CCNCC3)sc2s1` returned a concentration for half-maximal inhibition (IC50) of 410 nM. Besides, the ED50 in test [3] was found to be 48 nM.

Values taken from ChEMBL document CHEMBL1151496, “Nonpeptide GPIIB/IIIA inhibitors. 16. Thieno[2,3-b]thiophene -sulfonamides are potent inhibitors of platelet aggregation” (Bioorg Med Chem Lett, 1997).
